According to patent US20240051985A1, “METTL3 MODULATORS” (ACCENT THERAPEUTICS, INC., priority 2020, published 2024):

Assays:
[1] = molecular target: T1, FLT3 (Homo sapiens, UniProt P36888); assay: FLT3 LanthaScreen assay; format: biochemical; conditions: Table 4
T1 sequence (P36888 27-993): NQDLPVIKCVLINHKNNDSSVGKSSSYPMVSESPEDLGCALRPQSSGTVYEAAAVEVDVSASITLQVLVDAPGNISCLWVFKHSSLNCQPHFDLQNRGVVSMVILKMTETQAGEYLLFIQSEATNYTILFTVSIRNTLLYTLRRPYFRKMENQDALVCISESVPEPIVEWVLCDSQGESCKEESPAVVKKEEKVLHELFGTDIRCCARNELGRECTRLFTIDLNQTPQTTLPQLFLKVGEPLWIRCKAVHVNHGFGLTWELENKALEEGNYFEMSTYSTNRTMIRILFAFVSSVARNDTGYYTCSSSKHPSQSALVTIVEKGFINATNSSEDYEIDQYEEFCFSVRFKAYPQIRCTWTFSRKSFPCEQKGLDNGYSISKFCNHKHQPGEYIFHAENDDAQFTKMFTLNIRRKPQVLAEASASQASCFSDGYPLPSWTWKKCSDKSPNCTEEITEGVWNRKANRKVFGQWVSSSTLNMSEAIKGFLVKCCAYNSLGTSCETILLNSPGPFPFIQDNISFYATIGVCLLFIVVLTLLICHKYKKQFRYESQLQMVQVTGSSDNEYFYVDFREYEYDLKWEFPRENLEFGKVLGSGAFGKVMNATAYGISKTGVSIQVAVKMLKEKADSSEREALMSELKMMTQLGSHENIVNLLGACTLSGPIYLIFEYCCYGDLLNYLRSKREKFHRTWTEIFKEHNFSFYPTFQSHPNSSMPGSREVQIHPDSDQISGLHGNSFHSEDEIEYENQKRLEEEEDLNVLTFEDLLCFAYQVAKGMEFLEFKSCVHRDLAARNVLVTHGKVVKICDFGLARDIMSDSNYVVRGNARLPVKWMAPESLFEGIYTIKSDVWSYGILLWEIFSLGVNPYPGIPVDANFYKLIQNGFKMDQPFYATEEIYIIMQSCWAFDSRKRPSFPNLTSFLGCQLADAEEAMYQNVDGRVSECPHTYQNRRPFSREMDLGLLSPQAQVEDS
Experimental: (§1) FLT3/FLT3-ITD LanthaScreen Assays
(§2) Assays were performed in a 10 μl-volume in 384-well polypropylene microplates (Perkin Elmer Proxiplate, cat. No. 6059480) at ambient temperature. Optimized 1× assay buffer was 50 mM Hepes pH 7.5, 2 mM DTT, 0.01% Tween, 0.01% BSA, 10 mM MgCl2. For compound screening FLT3 (final concentration, f.c.=[…]) or FLT3-ITD (f.c.=[…]) was added using a Multidrop Combi (ThermoFisher Scientific, Waltham, MA) and preincubated for 10 min. Reactions were started by adding fluorescein-poly GT (f.c.=200 nM) and ATP (f.c.=57 μM) substrates. Reactions proceeded for 40 minutes. The reactions were stopped with a detection mixture of EDTA (f.c.=20 mM) and terbium-conjugated anti-phoso tyrosine antibody pY20 (f.c.=2 nM). The plates were sealed and read on an Envision (PerkinElmer, Waltham, MA) using 340 nm excitation and emission reads at 495 and 520 nM.

[2] = molecular target: PRMT5-MEP50 (Homo sapiens, UniProt O14744); assay: PRMT5 assay (3H-SAM flashplate); conditions: PRMT5 biochemical assay
Method in brief: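 Radiometric methyl-transfer read-out: 3H-methyl transferred to a 3′-biotinylated, acetylated H4 peptide substrate (100 nM) from 3H-SAM (250 nM), captured on streptavidin scintillation plates. Enzyme complex 2.5 nM, pH 8.0 Tris buffer with DTT and Tween, compound preincubation 5 min, 60 min reaction stopped with excess unlabeled SAM.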

[3] = molecular target: T2, FLT3-ITD (Homo sapiens, UniProt P36888); assay: FLT3-ITD LanthaScreen assay; format: biochemical; conditions: Table 4
T2 sequence (P36888 1-993): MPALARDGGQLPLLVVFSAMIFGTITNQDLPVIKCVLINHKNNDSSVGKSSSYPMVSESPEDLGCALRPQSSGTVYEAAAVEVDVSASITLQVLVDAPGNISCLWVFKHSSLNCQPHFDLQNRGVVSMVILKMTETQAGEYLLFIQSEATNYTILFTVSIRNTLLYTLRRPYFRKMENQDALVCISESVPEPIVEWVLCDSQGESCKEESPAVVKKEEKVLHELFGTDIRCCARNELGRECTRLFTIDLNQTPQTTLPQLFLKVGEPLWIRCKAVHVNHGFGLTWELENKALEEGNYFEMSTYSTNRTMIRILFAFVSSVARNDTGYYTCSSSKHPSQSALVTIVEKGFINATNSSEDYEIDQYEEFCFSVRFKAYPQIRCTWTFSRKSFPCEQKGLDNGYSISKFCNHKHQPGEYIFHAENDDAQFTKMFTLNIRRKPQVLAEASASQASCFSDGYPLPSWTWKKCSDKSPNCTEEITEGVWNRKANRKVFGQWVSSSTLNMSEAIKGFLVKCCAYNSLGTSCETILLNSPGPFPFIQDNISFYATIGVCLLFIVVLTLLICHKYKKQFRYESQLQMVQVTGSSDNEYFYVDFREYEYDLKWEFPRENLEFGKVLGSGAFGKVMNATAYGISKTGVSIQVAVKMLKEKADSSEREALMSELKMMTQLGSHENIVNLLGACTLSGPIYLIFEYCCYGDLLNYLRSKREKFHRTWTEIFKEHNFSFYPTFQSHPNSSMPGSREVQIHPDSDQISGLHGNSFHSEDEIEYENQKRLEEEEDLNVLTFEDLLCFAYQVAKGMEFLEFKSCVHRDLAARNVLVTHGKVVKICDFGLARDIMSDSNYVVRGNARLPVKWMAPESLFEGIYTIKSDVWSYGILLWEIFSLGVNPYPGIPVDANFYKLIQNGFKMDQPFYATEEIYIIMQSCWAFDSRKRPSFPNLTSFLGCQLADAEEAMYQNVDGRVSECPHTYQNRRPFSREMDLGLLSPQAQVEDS
Experimental: as §1, §2

[4] = molecular target: METTL3/METTL14 (Homo sapiens, UniProt Q86U44); assay: METTL3-14 standard enzyme assay (3H-SAM flashplate); conditions: METTL3 biochemical assay
Method in brief: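 Radiometric methyltransferase read-out: after quenching with excess unlabelled SAM (15 μM), biotinylated RNA was captured on streptavidin flashplates (2 h, 25° C) and counted. Reactions contained 2.5 nM enzyme (5 min preincubation), 100 nM RNA and 100 nM 3H-SAM, ran 30 min in HEPES pH 7.5 buffer with KCl, MgCl2, DTT.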

Chain of METTL3/METTL14 (Q86U44 whole entry, species assumed): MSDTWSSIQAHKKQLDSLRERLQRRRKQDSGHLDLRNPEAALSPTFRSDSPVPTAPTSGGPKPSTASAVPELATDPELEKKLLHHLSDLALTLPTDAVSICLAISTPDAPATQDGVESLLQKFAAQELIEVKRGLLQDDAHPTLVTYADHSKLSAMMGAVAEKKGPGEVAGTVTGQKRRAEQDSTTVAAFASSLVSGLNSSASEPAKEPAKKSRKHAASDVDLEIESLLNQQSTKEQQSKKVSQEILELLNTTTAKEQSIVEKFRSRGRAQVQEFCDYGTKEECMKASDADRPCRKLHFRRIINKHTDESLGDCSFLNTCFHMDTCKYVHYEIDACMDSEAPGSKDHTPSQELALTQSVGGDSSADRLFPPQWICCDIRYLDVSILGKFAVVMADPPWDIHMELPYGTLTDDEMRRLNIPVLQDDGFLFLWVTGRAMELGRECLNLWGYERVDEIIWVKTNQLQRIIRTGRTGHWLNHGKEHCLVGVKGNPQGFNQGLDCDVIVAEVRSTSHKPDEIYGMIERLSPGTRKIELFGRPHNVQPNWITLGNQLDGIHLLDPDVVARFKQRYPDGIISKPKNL
Chain of METTL3/METTL14 (Q9HCE5 whole entry partner, species assumed): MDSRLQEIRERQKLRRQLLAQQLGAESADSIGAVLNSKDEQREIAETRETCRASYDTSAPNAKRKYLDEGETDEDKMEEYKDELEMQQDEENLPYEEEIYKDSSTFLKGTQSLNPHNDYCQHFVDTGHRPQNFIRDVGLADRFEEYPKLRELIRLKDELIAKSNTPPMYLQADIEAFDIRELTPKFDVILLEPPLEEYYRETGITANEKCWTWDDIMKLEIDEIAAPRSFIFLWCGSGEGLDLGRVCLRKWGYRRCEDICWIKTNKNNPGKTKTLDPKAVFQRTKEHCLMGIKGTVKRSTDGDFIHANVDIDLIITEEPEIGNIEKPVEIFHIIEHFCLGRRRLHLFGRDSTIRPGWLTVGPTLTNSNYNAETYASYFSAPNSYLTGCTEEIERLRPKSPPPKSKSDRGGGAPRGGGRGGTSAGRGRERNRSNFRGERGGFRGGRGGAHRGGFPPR
Chain of PRMT5-MEP50 (O14744 whole entry): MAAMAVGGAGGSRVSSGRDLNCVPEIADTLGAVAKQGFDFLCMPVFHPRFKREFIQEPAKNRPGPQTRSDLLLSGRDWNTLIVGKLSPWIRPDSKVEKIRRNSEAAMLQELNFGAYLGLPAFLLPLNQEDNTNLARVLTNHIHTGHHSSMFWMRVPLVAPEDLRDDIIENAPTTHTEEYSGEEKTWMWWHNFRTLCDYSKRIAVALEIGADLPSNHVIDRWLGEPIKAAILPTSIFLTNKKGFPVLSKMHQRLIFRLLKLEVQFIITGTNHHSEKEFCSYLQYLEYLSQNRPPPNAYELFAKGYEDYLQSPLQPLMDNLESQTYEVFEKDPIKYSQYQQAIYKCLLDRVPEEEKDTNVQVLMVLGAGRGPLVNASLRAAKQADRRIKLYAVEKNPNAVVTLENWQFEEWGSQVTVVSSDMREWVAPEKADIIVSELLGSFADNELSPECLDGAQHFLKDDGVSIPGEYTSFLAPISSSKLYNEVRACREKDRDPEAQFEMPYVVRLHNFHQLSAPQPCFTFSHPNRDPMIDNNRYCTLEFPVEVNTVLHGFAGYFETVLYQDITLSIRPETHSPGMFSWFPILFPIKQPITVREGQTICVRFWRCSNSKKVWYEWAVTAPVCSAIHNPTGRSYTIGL
Chain of PRMT5-MEP50 (Q9BQA1 whole entry partner): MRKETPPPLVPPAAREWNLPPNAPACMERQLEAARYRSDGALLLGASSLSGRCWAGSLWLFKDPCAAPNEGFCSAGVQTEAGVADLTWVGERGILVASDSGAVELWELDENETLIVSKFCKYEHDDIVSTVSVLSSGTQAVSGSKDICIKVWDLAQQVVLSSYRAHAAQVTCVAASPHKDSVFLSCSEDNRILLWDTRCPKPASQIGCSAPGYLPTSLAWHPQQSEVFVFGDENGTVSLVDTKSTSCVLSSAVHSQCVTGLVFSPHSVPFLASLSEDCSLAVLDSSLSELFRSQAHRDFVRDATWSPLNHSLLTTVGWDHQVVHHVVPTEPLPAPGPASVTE

| Structure (SMILES) | IC50 [1] | IC50 ([2]; Table 4) | IC50 [3] | IC50 ([4]; Table 4) | IC50 ([2]; Table 3) | IC50 ([4]; Table 3) |
| --- | --- | --- | --- | --- | --- | --- |
| CN1CCC(N(CCCO)C(=O)[C@H]2O[C@@H](n3cc(-c4ccn(C)n4)c4c(N)ncnc43)[C@H](O)[C@@H]2O)CC1 [Compound I-145] | ≥ 1000 nM | < 10 nM | ≥ 1000 nM | 100 to 1000 nM | – | – |
| Cn1ccc(-c2cn([C@@H]3O[C@H](C(=O)NCC[C@H](N)C(=O)O)[C@@H](O)[C@H]3O)c3ncnc(N)c23)n1 [Compound I-43] | ≥ 1000 nM | ≥ 1000 nM | ≥ 1000 nM | 100 to 1000 nM | – | – |
| CN1CCC(N(CCCN)C(=O)[C@H]2O[C@@H](n3cc(-c4ccn(C)n4)c4c(N)ncnc43)[C@H](O)[C@@H]2O)CC1 [Compound I-146] | ≥ 1000 nM | 10 to 100 nM | ≥ 1000 nM | 10 to 100 nM | – | – |
| CN1[C@@H]2CC[C@H]1C[C@@H](NC(=O)[C@H]1O[C@@H](n3cc(-c4ccn(C)n4)c4c(N)ncnc43)[C@H](O)[C@@H]1O)C2 [Compound I-187] | ≥ 1000 nM | 10 to 100 nM | ≥ 1000 nM | 100 to 1000 nM | – | – |
| CC1CC(NC(=O)[C@H]2O[C@@H](n3cc(-c4ccn(C)n4)c4c(N)ncnc43)[C@H](O)[C@@H]2O)CCN1 (stereo in doubt) [Compound I-212] | ≥ 1000 nM | 100 to 1000 nM | ≥ 1000 nM | 100 to 1000 nM | – | – |
| Cn1ccc(-c2cn([C@@H]3O[C@H](C(=O)N4CCC[C@@H](C(N)=O)C4)[C@@H](O)[C@H]3O)c3ncnc(N)c23)n1 [Compound I-174] | ≥ 1000 nM | ≥ 1000 nM | ≥ 1000 nM | ≥ 1000 nM | – | – |
| COCCn1ccc(-c2cn([C@@H]3O[C@H](C(=O)NC4CCN(C)CC4)[C@@H](O)[C@H]3O)c3ncnc(N)c23)n1 [Compound I-57, (2S,3S,4R,5R)-5-(4-amino-5-(1-(2-methoxyethyl)-1H-pyrazol-3-yl)-7H-pyrrolo[2,3-d]pyrimidin-7-yl)-3,4-dihydroxy-N-(1-methylpiperidin-4-yl)tetrahydrofuran-2-carboxamide] | ≥ 1000 nM | 100 to 1000 nM | ≥ 1000 nM | 100 to 1000 nM | – | – |
| C[C@H]1C[C@H](NC(=O)[C@H]2O[C@@H](n3cc(-c4ccn(C)n4)c4c(N)ncnc43)[C@H](O)[C@@H]2O)CCN1C [Compound I-234] | ≥ 1000 nM | 100 to 1000 nM | ≥ 1000 nM | 100 to 1000 nM | – | – |
| Cn1ccc(-c2cn([C@@H]3O[C@H](C(=O)N[C@@H]4CCCNC4)[C@@H](O)[C@H]3O)c3ncnc(N)c23)n1 [Compound I-220] | ≥ 1000 nM | < 10 nM | ≥ 1000 nM | 100 to 1000 nM | – | – |
| Cn1ccc(-c2cn([C@@H]3O[C@H](C(=O)NC[C@H]4CC[C@@H](O)CC4)[C@@H](O)[C@H]3O)c3ncnc(N)c23)n1 [Compound I-45, (2S,3S,4R,5R)-5-[4-amino-5-(1-methyl-1H-pyrazol-3-yl)-7H-pyrrolo[2,3-d]pyrimidin-7-yl]-3,4-dihydroxy-N-{[(1s,4s)-4-hydroxycyclohexyl]methyl}oxolane-2-carboxamide] | ≥ 1000 nM | ≥ 1000 nM | ≥ 1000 nM | ≥ 1000 nM | – | – |
| CC1CC(NC(=O)[C@H]2O[C@@H](n3cc(-c4ccn(C)n4)c4c(N)ncnc43)[C@H](O)[C@@H]2O)CCN1C (stereo in doubt) [Compound I-231] | ≥ 1000 nM | 100 to 1000 nM | ≥ 1000 nM | 100 to 1000 nM | – | – |
| CN1CCC(NC(=O)[C@H]2O[C@@H](n3cc(C4CCCO4)c4c(N)ncnc43)[C@H](O)[C@@H]2O)CC1 (stereo partly drawn) [Compound I-53, (2S,3S,4R,5R)-5-[4-amino-5-(oxolan-2-yl)-7H-pyrrolo[2,3-d]pyrimidin-7-yl]-3,4-dihydroxy-N-(1-methylpiperidin-4-yl)oxolane-2-carboxamide] | ≥ 1000 nM | 100 to 1000 nM | ≥ 1000 nM | 100 to 1000 nM | – | – |
| CN1CCC(N(CC[C@H](N)C(=O)O)C(=O)[C@H]2O[C@@H](n3cc(-c4ccn(C)n4)c4c(N)ncnc43)[C@H](O)[C@@H]2O)CC1 [Compound I-31, (S)-2-amino-4-((2S,3S,4R,5R)-5-(4-amino-5-(1-methyl-1H-pyrazol-3-yl)-7H-pyrrolo[2,3-d]pyrimidin-7-yl)-3,4-dihydroxy-N-(1-methylpiperidin-4-yl)tetrahydrofuran-2-carboxamido)butanoic acid] | ≥ 1000 nM | – | ≥ 1000 nM | – | < 10 nM | < 10 nM |
| CN1CC[C@@H](NC(=O)[C@H]2O[C@@H](n3cc(-c4ccn(C)n4)c4c(N)ncnc43)[C@H](O)[C@@H]2O)C1 [Compound I-184] | ≥ 1000 nM | 10 to 100 nM | ≥ 1000 nM | 100 to 1000 nM | – | – |
| Cn1ccc(-c2cn([C@@H]3O[C@H](C(=O)NC4CCc5cnc(N)nc5C4)[C@@H](O)[C@H]3O)c3ncnc(N)c23)n1 (some centres unmarked) [Compound I-188] | ≥ 1000 nM | 100 to 1000 nM | ≥ 1000 nM | 100 to 1000 nM | – | – |
| CNc1ccc2ccc(NC(=O)[C@H]3O[C@@H](n4cc(-c5ccn(C)n5)c5c(N)ncnc54)C[C@@H]3O)cc2n1 [Compound I-35] | ≥ 1000 nM | 10 to 100 nM | ≥ 1000 nM | < 10 nM | – | – |
| CN1CCC[C@@H](NC(=O)[C@H]2O[C@@H](n3cc(-c4ccn(C)n4)c4c(N)ncnc43)[C@H](O)[C@@H]2O)C1 [Compound I-46, (2S,3S,4R,5R)-5-[4-amino-5-(1-methyl-1H-pyrazol-3-yl)-7H-pyrrolo[2,3-d]pyrimidin-7-yl]-3,4-dihydroxy-N-[(3R)-1-methylpiperidin-3-yl]oxolane-2-carboxamide] | ≥ 1000 nM | 10 to 100 nM | ≥ 1000 nM | ≥ 1000 nM | – | – |
